{
  "source": "patent US7919460B2",
  "about": "“Method for prophylaxis of reflex sympathetic dystrophy after stroke” (Asahi Kasei Pharma Corporation, priority 2006, dated 2011)",
  "key": {"[1]": {"tested_on": "patients with hemiplegia attributed to cerebrovascular disease (stroke), onset of RSD (shoulder-hand syndrome)", "test": "Test of prevention of onset of post-stroke RSD", "format": "in vivo, humans", "source_text": "Test subjects were 33 patients with hemiplegia attributed to cerebrovascular disease (stroke) at Brunnstrom stage III or lower in either the upper limb or a finger on admission. Patients already developing RSD (shoulder-hand syndrome) on admission and patients with pain in the shoulder joint or swollen paralyzed limbs were excluded from the test. […] On the other hand, 21 test subjects were classified into a rehabilitation alone group (control group) and compared with the EL administration group. Physical therapy and therapeutic exercise, occupational therapy, and the management of the paralyzed limbs were performed thoroughly in all the cases. […] EL administration was initiated 11 to 59 days after an attack of stroke (25.8 days on average) and continued until 5 months after the attack of stroke. The same observation period was applied to the control group. The test subjects were diagnosed as developing RSD (shoulder-hand syndrome) if they had diffuse pain not localized to the shoulder joint, edema involving skin color changes, skin temperature abnormalities, and range of motion limitations, and the practice of their rehabilitation was restricted. These criteria agreed to Veldmnan's diagnostic criteria or diagnostic criteria for CRPS-type 1 provided by the International Association for the Study of Pain.\nActivities of daily living (ADL) were evaluated on the basis of the Barthel Index (BI) and the range of motion (ROM) of shoulder joint. The movable range of shoulder joint (also referred to as “shoulder ROM”) was regarded as restricted (Shoulder-ROM-restrictions were present.) if either abduction or flexion was restricted in measurement. The test subjects were also examined for sensory impairment, aphasia, and unilateral spatial neglect on admission.\nStatistical analysis was conducted with unpaired t-test, Fisher's exact test or Wilcoxon test, and 5% or lower significance level was regarded as being significant."}, "[2]": {"tested_on": "patients with hemiplegia attributed to cerebrovascular disease (stroke) who developed RSD (shoulder-hand syndrome)", "test": "Test of treatment of post-stroke RSD (therapeutic administration after onset)", "format": "in vivo, humans", "settings": "therapeutic administration group (11 patients), at completion of administration", "description": "EL was administered after the onset of RSD (shoulder-hand syndrome) in the same use and dose as in Example 1 to 11 patients with hemiplegia attributed to cerebrovascular disease (stroke) at Brunnstrom stage III or lower in either the upper limb or a finger on admission, who developed RSD (shoulder-hand syndrome). These patients were classified into a therapeutic administration group. On the other hand, the EL administration group of Example 1 was compared as a control (preventive administration group) with the therapeutic administration group."}, "[3]": {"tested_on": "RSD triggered and developed by a trauma or surgical invasion", "settings": "clinical, literature; cited from earlier work"}, "[4]": {"settings": "in vivo; cited from earlier work"}, "[5]": {"settings": "EL preventive administration group (12 cases), 20 units i.m. once a week until 5 months after stroke"}},
  "data": [
    {"compound": "1-butyric acid-7-(L-2-aminobutyric acid)-26-L-aspartic acid-27-L-valine-29-L-alanine-calcitonin [elcatonin]", "values": [
      {"measurement": "Incidence converted to incidence in all patients with hemiplegia attributed to stroke in the facility", "setting": "[1]; EL administration group", "value": "approximately 1.3%"},
      {"measurement": "Incidence of RSD", "setting": "[1]; EL administration initiated within 48 days after stroke", "value": 0, "unit": "%"},
      {"measurement": "The number of test subjects developing post-stroke RSD: Developed", "setting": "[1]; [5]", "value": 1},
      {"measurement": "The number of test subjects developing post-stroke RSD: Not developed", "setting": "[1]; [5]", "value": 11},
      {"measurement": "Incidence of RSD (cases developed RSD)", "setting": "[1]; EL preventive administration group, 12 cases", "value": 8.3, "unit": "%"},
      {"measurement": "Incidence of RSD until discharge versus unadministered patient group", "setting": "[1]; repetitive administration to stroke hemiplegia patients without RSD on admission", "value": "suppressed significantly and remarkably"},
      {"measurement": "No RSD, the number of persons", "setting": "[2]", "value": 0}
    ]},
    {"compound": "O=C1O[C@H]([C@@H](O)CO)C(O)=C1O", "note": "[vitamin C]", "values": [
      {"measurement": "Preventive effect on the initial onset of RSD after trauma or surgical invasion", "setting": "[3]", "value": "preventive effect"}
    ]},
    {"compound": "salmon calcitonin", "values": [
      {"measurement": "Dose of oral administration agent relative to dose of drip infusion in vein", "setting": "[4]", "value": "approximately 60 times"}
    ]}
  ]
}
